Patent US7176281B2 (priority 2003, dated 2007)
Where a SMILES comes first, the peptide text is derived from it. Where no end group is shown, it is not given here.

Tests used:
[1] = biological target: T1, serum group IIA secretory phospholipase A2 (Homo sapiens, UniProt P14555); conditions: patients with severe sepsis; cited from earlier work
T1 construct: host or cells: patients' serum
T1 sequence (P14555 21-144): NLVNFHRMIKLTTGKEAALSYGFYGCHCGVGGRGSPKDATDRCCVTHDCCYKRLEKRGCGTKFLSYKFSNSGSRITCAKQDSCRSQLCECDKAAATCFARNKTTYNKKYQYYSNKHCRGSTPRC

sPLA2 [2] = conditions: known selective sPLA2 inhibitor; cited from earlier work
sPLA2 [3] = assay: Inhibition of sPLA2 activity at fixed concentrations; type: biochemical
[4] = biological target: T2, Group IIA purified human synovial sPLA2 (Homo sapiens, UniProt P14555); assay: In vitro inhibition of purified human synovial sPLA2, 3H-labelled E. coli membranes; type: biochemical; conditions: 3H-labelled E. coli membranes as substrate
T2 construct: purchased Cayman, USA
T2 sequence (P14555 21-144): T1 sequence (P14555 21-144)

[5] = biological target: T3, arthritis synovial fluid (human type IIA sPLA2) (Homo sapiens, UniProt P14555); assay: PLA2 inhibition, E. coli membrane assay, arthritis synovial fluid sPLA2; type: biochemical; conditions: read-out: IC50 (mean±SD; n=3)
T3 construct: arthritis synovial fluid (human type IIA sPLA2); from tissue; host or cells: human arthritis synovial fluid
T3 sequence (P14555 21-144): T1 sequence (P14555 21-144)

[6] = biological target: snake venom PLA2 (crotoxin B) (Crotalus durissus terrificus, UniProt P0CAS2); assay: biochemical
snake venom PLA2 (crotoxin B), sequence (P0CAS2 whole entry, looked up): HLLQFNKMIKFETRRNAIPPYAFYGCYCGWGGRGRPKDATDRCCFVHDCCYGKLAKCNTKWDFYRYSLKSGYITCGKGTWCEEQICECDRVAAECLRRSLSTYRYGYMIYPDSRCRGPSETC

[7] = biological target: T4, 100-kDa human recombinant cytosolic form of PLA2 (cPLA2) (Homo sapiens, UniProt P47712); assay: PLA2 inhibition, E. coli membrane assay, cPLA2; type: biochemical
T4 sequence (P47712 1-749): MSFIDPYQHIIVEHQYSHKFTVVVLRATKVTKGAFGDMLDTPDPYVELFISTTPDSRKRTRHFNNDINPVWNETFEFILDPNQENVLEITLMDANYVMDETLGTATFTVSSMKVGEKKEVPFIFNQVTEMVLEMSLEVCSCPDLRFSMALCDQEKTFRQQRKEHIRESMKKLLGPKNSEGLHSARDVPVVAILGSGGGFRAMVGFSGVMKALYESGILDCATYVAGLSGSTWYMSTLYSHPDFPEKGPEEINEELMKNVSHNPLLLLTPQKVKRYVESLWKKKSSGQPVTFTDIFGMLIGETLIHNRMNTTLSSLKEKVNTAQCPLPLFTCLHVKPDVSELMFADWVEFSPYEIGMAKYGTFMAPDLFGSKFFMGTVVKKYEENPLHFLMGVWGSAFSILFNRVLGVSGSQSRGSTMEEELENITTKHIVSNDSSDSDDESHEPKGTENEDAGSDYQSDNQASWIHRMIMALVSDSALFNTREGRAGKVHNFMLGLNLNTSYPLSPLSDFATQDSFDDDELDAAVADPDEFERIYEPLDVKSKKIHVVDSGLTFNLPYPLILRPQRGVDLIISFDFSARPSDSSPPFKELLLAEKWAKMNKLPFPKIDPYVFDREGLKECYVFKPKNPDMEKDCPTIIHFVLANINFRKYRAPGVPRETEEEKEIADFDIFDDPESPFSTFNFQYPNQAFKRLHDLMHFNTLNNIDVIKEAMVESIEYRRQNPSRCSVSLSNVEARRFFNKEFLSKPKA

[8] = system: Tg197 transgenic mice (chronic inflammatory polyarthritis); assay: Tg197 transgenic mouse arthritis model, experiment 2 (4 weeks, time course); type: in vivo
Experimental: In experiment 2, mice were divided into 6 groups (A–F), and were injected i.p with 3 weekly doses (150 μg peptide in 50 μL DMSO per dose) of either the test peptide P-NT.II or the control peptide with the scrambled sequence for 4 consecutive weeks. Tg197 mice in Group B (n=18) were further divided into 4 sub-groups (B1, B2, B3, B4). At the end of 1st week, four Tg197 mice from Group B (sub-group B1) were sacrificed and both hind legs taken for histological processing and scorings. The remaining Tg197 mice from the other sub-groups B were continued with 3 regular doses of injections per week, and four Tg197 mice from each sub-group B2 and B3, were sacrificed at the end of 2nd and 3rd weeks, respectively. At the end of 4th week, all remaining Tg197 mice ([…]) were sacrificed for collection of joint specimens.
Disease monitoring was done by gross observations based on body weight measurements and arthritis scoring, which were done twice weekly after treatment until all the animals were sacrificed at 5th week in experiment 1, or at 4th week in experiment 2. Arthritis score (AS) was recorded on both ankle joints, and average scores as shown below were taken: • 0=no arthritis (normal appearance and flexion); • 0.5=onset of arthritis (mild joint swelling); • 1.0=mild arthritis (joint distortion); • 1.5=as above+finger deformation, less strength on flexion; • […]=moderate arthritis (severe swelling, joint deformation, no strength on flexion); • 2.5=as above+finger deformation in paws; • 3.0=heavy arthritis (ankylosis detected on flexion and severely impaired movement).
For histopathological scoring, both hind legs were dissected and fixed in 10% formaldehyde overnight, decalcified in citrate-buffered formic acid for 3 days at 4° C., and processed for light microscopy (LM). • Histopathological score (HS) was evaluated as follows: • 0=no detectable pathology, • 1=hyperplasia of the synovial membrane and presence of polymorphonuclear infiltrates • 2=pannus and fibrous tissue formation and focal subchondrial bone erosion • 3=articular cartilage destruction and bone erosion • 4=articular cartilage destruction and extensive bone erosion.
Transmission electron microscopy (TEM): Ankle joints dissected from the left hind leg of each mouse were split open longitudinally through the midline between the tibia and the talus, prefixed overnight with 2.5% glutaraldehyde in phosphate buffer, pH 7.4 (PB) and rinsed with PB. After fixing with 1% osmium tetroxide in PB for 2 h, they were dehydrated in a graded series of ethanol and processed into Araldite. Semi-thin sections (1.0μ) were cut and stained with methylene blue to observe the orientation and for histopathological scorings under the light microscope. Ultra-thin sections (80–90 nm) were then cut with an ultramicrotome (Riechert-Jung Ultracut E), mounted on copper grids, counterstained with uranyl acetate and lead citrate, and evaluated under electron microscope (CM120 Biotwin, FEI Company).
Anti-inflammatory activity of the candidate peptide P-NT.II was examined as a new treatment option for modulating rheumatoid arthritis (RA) in a transgenic animal model. To evaluate the potential effectiveness of the peptide as prophylaxis against RA, two separate experiments were performed in 4 week-old transgenic (Tg197) mice and non-transgenic wild-type (wt) mice. These transgenic mice (Tg197) express human tumor necrosis factor (TNFα), a cytokine which has been implicated in the pathogenesis of human RA.

serum sPLA2 = assay: Serum sPLA2 levels in Tg197 mice, E. coli membrane assay; type: in vivo, mouse; conditions: 3–4 weeks post-treatment
Experimental: Serum of transgenic (Tg197) mice and non-transgenic wild type controls were measured for sPLA2 using an Escherichia coli (E. coli) membrane assay as described previously [Eur J Biochem 2002, 269:719–727]. In brief, [^3H] arachidonate-labeled E. coli membrane suspension (5.8 μCi/μmol, Perkin Elmer, USA) was used as substrate, and 25 mM CaCl2-100 mM Tris-HCl (pH 7.5) as assay buffer. The reaction mixture containing substrate (20 μl), and either purified human synovial sPLA2 standard (1–80 ng/ml, Cayman, USA) or serum (10 μl) in a final volume of 250 μl in assay buffer was incubated at 37° C. for 1 h, and the reaction terminated with 750 μl of chilled PBS containing 1% BSA. 500 μl aliquots of the supernatant were then taken to measure the amount of [^3H] arachidonate released from the E. coli membrane using liquid scintillation counting (Beckman LS 6500 Scintillation Counter). The amount of sPLA2 present in the serum was calculated from the standard curve, and is expressed as ng/ml±SEM.
FIG. 12 depicts time course of serum sPLA2 levels. Serum sPLA2 levels were measured with an E. coli membrane assay in blood samples collected from untreated, P-NT.I- and scrambled P-NT.II-treated Tg197 mice at weekly intervals. Values are the mean±SD (n=4/group). […]

[9] = system: mammalian (human and rat) type IIA sPLA2; type: binding
crotoxin B (Group IIA) = crotoxin B (Group IIA) (Crotalus durissus terrificus, UniProt P0CAS2)
[10] = biological target: bee (Apis mellifera) venom PLA2 (Group III) (Apis mellifera, UniProt P00630)
human recombinant cPLA2 = biological target: T5, human recombinant cPLA2 (Homo sapiens, UniProt P47712); type: binding
T5 sequence (P47712 1-749): T4 sequence (P47712 1-749)

β-bungarotoxin (Group I) = β-bungarotoxin (Group I) (Bungarus multicinctus, UniProt P00617)

Compound: CCc1c(C(=O)C(N)=O)c2c(OCC(=O)O)cccc2n1Cc1ccccc1 [LY315920]
- serum group IIA secretory phospholipase A2 enzyme activity [1]: inhibit

Compound: CC(=O)O[C@@H]1C[C@@H]2[C@@]3(C)CCCC(C)(C)[C@@H]3CC[C@@]2(C)[C@@H]2CC=C(C=O)[C@H](C=O)[C@@]12C [12-epi-scalaradial]
- IC50 (sPLA2 [2]): 5.4 µM
- inhibition of sPLA2 activity (sPLA2 [3]; 10 μM): 75%
- inhibition of sPLA2 activity (sPLA2 [3]; 20 μM): 95%

Compound: CC[C@H](C)[C@H](NC(=O)[C@H](Cc1ccc(O)cc1)NC(=O)[C@@H](NC(=O)CNC(=O)[C@H](CC(=O)O)NC(=O)[C@H](Cc1c[nH]c2ccccc12)NC(=O)[C@@H](NC(=O)[C@H](Cc1cnc[nH]1)NC(=O)[C@@H](NC(=O)[C@H](CC(=O)O)NC(=O)[C@@H](NC(=O)[C@H](CCCNC(=N)N)NC(=O)CNC(=O)[C@@H](N)CC(C)C)C(C)C)[C@@H](C)CC)C(C)C)C(C)C)C(=O)N[C@@H](CCCNC(=N)N)C(=O)NCC(=O)N[C@@H](CCCNC(=N)N)C(=O)O [P-NT.II] (H-LGRVDIHVWDGVYIRGR-OH)
- IC50 [4]: 5.3 µM
- IC50 [5]: 3.91 ± 1.67 µM
- IC50 ([6]; IC50 (mean±SD; n=3)): 4.91 ± 2.47 µM
- IC50 ([6]; IC50 ranging): 3.9 to 4.9 µM
- IC50 ([7]; human recombinant cPLA2, read-out: IC50 (mean±SD; n=3)): 23.9 ± 2.39 µM

Compound: CC[C@H](C)[C@H](NC(=O)[C@H](CC(=O)O)NC(=O)[C@@H](NC(=O)[C@H](CCCNC(=N)N)NC(=O)[C@H](CCCNC(=N)N)NC(=O)[C@@H](N)Cc1ccc(O)cc1)C(C)C)C(=O)NCC(=O)N[C@@H](CC(C)C)C(=O)N[C@@H](CCCNC(=N)N)C(=O)N[C@H](C(=O)N[C@@H](Cc1c[nH]c2ccccc12)C(=O)N[C@@H](Cc1c[nH]cn1)C(=O)N[C@@H](CC(=O)O)C(=O)N[C@@H](CC(C)C)C(=O)NCC(=O)N[C@H](C(=O)NCC(=O)O)C(C)C)C(C)C [Scrambled P-NT.II, reference compound] (H-YRRVDIGLRVWHDLGVG-OH; N-terminus and C-terminus assumed)
- ultrastructural features of the articular chondrocytes (TEM) ([8]; 1–4 weeks post-treatment): more or less similar to those described for untreated Tg197 mice
- % of total at indicated HS scores, HS 2 ([8]; 4 wk treatment): 16.7%
- % of total at indicated HS scores, HS 3 ([8]; 4 wk treatment): 83.3%
- % of total at indicated HS scores, HS 4 ([8]; 4 wk treatment): 0%
- Mean HS ± SEM ([8]; 4 wk treatment): 3.25 ± 0.17
- inhibition of sPLA2 (sPLA2 [3]): failed to inhibit
- circulating sPLA2 compared with untreated mice (serum sPLA2): not significantly different
- competition with labeled P-NT.II for binding to type IIA sPLA2 [9]: failed to block
- IC50 ([6]; IC50): > 250 µM
- inhibition of cPLA2 [7]: failed to inhibit

Compound: biotinylated-P-NT.II: P-NT.II labeled with biotin, 0.18 mol biotin bound to 1 mol of P-NT.II (LGRVDIHVWDGVYIRGR; also: labeled with biotin, 0.18 mol biotin per mol peptide, site not given here)
- ELISA reaction (crotoxin B (Group IIA)): reacted positively
- ELISA reaction [10]: reacted positively
- ELISA reaction (human recombinant cPLA2): reacted positively
- binding to cPLA2 relative to sPLA2s (human recombinant cPLA2): relatively much weaker
- ELISA reaction (β-bungarotoxin (Group I)): reacted positively
